Test results: US20110038884A1, “IMMUNOPOTENTIATING AGENT COMPRISING EP1 AGONIST” (NATIONAL UNIVERSITY CO., HAMAMATSU UNIVER. SCHOOL OF …, priority 2008, published 2011)

What was measured:
splenic lymphocytes = assay: Splenic lymphocyte proliferative ability test (WST-1); format: in vivo, B6 mice; details: cell proliferation ratio; splenic lymphocytes recovered one week after application after TS, cultured 3 days with IL-2 (10 U/mL); TS-only group 4.2
Procedure: As in Example 6, TS was carried out, after which Compound A (20 μL of a 100 μM solution per side of an auricle) was applied as the substance. One week after application of the test substance, splenic lymphocytes were recovered, then cultured at 37° C. for 3 days in a culture medium (cRPMI1640 medium: Sigma-Aldrich Japan) containing IL-2 (10 U/mL). Cell proliferative ability tests were carried out using WST-1 (Takara Bio Inc.) as the cell proliferation reagent (absorbance at 450 nm). Experimental groups similar to those in Example 6 were established (with each group containing three animals).
The relative values of the absorption intensities in each experimental group, based on an arbitrary value of 1 for the absorbance at 450 nm when all of the WST-1 added had decomposed to formazan, indicate the percent uptake of WST-1; that is, the cell proliferation ratio.

ICAM-1 (CD54) = assay: Expression of cell-surface molecules in cultured Langerhans cells (flow cytometry): ICAM-1; format: cell-based, C57BL/6 mice; details: Compound A 1 μM, Langerhans cells cultured a half-day; control group 36.5
Procedure: (§1) Using the same procedure as in Example 2 above, the Langerhans cells of C57BL/6 (36) mice were isolated, following which Compound A (1 μM) was added as an EP1 agonist and the cells were cultured for a half-day in a culture medium (cRPMI1640 medium; Sigma-Aldrich Japan). The cultured cells were then stained using antibodies specific to the cell-surface molecules I-A^b, B7-1 (CD80), B7-2 (CD86), CD40 and ICAM-1 (CD54), and changes in the expression of these molecules were analyzed by flow cytometry. An experimental group treated in the same way, excluding the addition of Compound A, was established as a control.

CD40 = assay: Expression of cell-surface molecules in cultured Langerhans cells (flow cytometry): CD40; format: cell-based, C57BL/6 mice; details: Compound A 1 μM, Langerhans cells cultured a half-day; control group 28.7
Procedure: as §1

B7-1 (CD80) = assay: Expression of cell-surface molecules in cultured Langerhans cells (flow cytometry): B7-1; format: cell-based, C57BL/6 mice; details: Compound A 1 μM, Langerhans cells cultured a half-day; control group 5.9
Procedure: as §1

NK1.1+ cells = assay: Activation of NK1.1+ cells in cervical lymph nodes; format: in vivo, B6 mice; details: relative to 100 = total mononucleocytes in cervical lymph nodes; two weeks after application of 20 μL of 100 μM per side after TS; TS-only group 2.7
Procedure: As in Example 1, the corneal layer of the auricles of B6 mice was destroyed by repeatedly stripping ten times using adhesive tape, following which an EP1 agonist (Compound A: 20 μL of a 100 μM solution per side of an auricle) was applied as the test substance. Two weeks after application of the test substance, the cervical lymph nodes were removed. The frequency of NK1.1+ cells, relative to an arbitrary value of 100 representing the total number of mononucleocytes in the cervical lymph nodes, was determined by flow cytometric analysis. The following groups were established as experimental groups: (1) a group in which only TS was carried out, and (2) a group in which Compound A was applied after TS.

[1] = system: TRP-2-specific CTLs in cervical lymph nodes; assay: Activation of cytotoxic T lymphocytes in cervical lymph nodes: TRP-2-specific CTL frequency by tetramer flow cytometry after tape stripping; format: in vivo, C57BL/6 (B6) mice; details: relative to 100 = total mononucleocytes in cervical lymph nodes; one week after application to tape-stripped auricles; TRP-2 10 mg per side, Compound A 20 μL of 100 μM per side
Procedure: The corneal layer of the auricles of C57BL/6 (B6) mice was destroyed by repeatedly carrying out (ten times) a stripping operation using adhesive tape, following which an antigen peptide or EP1 agonist was applied as a test substance. Using a solution obtained by dissolving a melanoma-specific antigen peptide (available from Peptide Business Department, Accord K.K.; abbreviated below as TRP-2) as the antigen peptide in 70% ethanol, 10 mg of the antigen peptide was applied per side of an auricle. […] One week after application of the test substance, the cervical lymph nodes were removed. The TRP-2-specific CTL frequency, relative to an arbitrary value of 100 representing the total number of mononucleocytes in the cervical lymph nodes, was determined by flow cytometric analysis (FACScaliber; Becton, Dickinson and Company) with a tetramer (Medical & Biological Laboratories Co., Ltd.). Four experimental groups were established: (1) a group in which only tape stripping (abbreviated below as TS) was carried out, (2) a group in which TRP-2 was applied after TS, (3) a group in which Compound A was applied after TS, and (4) a group in which TRP-2 and Compound A were applied after TS.

I-A^b = assay: Expression of cell-surface molecules in cultured Langerhans cells (flow cytometry): I-A^b; format: cell-based, C57BL/6 mice; details: Compound A 1 μM, Langerhans cells cultured a half-day; control group 12.1
Procedure: as §1

B16 melanoma cells = assay: Life-prolonging effects in melanoma-inoculated mice; format: in vivo, B6 mice; details: 8 animals per group
Procedure: B16 melanoma cells (2×10^5) were transplanted into B6 mice in the same way as in Example 4. On day 5 after transplantation, the respective test substances (TRP-2 (10 μg per side of an auricle), Compound A (20 μL of a 100 μM solution per side of an auricle)) were administered to the right auricles in B6 mice by the same method as in Example 2. The same treatment was carried out ten days later on the left auricle, following which the survival of the mice in each experimental group was examined. The following groups were established as experimental groups (each group being composed of 8 animals): (1) a group in which only TS was carried out, (2) a group in which compound A was applied after TS, and (3) a group in which TRP-2 and Compound A were applied after TS.

B7-2 (CD86) = assay: Expression of cell-surface molecules in cultured Langerhans cells (flow cytometry): B7-2; format: cell-based, C57BL/6 mice; details: Compound A 1 μM, Langerhans cells cultured a half-day; control group 65.5
Procedure: as §1

NP-pulsed EL4 cells = assay: NP-specific CTL specific lysis of calcein-labeled EL4 cells, NP pulsed; format: in vivo, C57BL/6 (B6) mice; details: NP-pulsed EL4 cells (10 μg/mL NP), 3 hours
[2] = system: EL4 cells not subjected to NP pulsing; assay: NP-specific CTL specific lysis of calcein-labeled EL4 cells, not NP pulsed; format: in vivo, C57BL/6 (B6) mice; details: 3 hours
[3] = system: isolated epidermal Langerhans cells; assay: Activation of cytotoxic T lymphocytes in isolated Langerhans cells co-cultured with lymphocytes; format: cell-based, C57BL/6 (B6) mouse; details: relative to 100 = total mononucleocytes in culture medium; TRP-2 10 μg/mL, Compound A 1 μM; 7 days co-culture
Procedure: An epidermal cell suspension was prepared by trypsinizing an auricle epidermal sheet removed over a given surface area from the corneal layer on one of the auricles in C57BL/6 (B6) mouse. The resulting epidermal cell suspension was subjected to panning using an antibody specific for I-A^b antigen in order to isolate epidermal Langerhans cells. Each test substance (TRP-2 (concentration, 10 μg/mL) and Compound A (1 μM)) was added to the isolated Langerhans cells (cell density, 10^5 cells/mL), following which the cells were cultured in a culture medium (cRPMI1640 medium; Sigma-Aldrich Japan). After a half-day, the cells were then co-cultured for 7 days with spleen cell lymphocytes isolated from the cervical lymph nodes of B6 mice. The frequency of TRP-2-specific CTLs, relative to an arbitrary value of 100 representing the total number of mononucleocytes in the culture medium, was subsequently determined by flow cytometric analysis (FACScaliber; Becton, Dickinson and Company) with a tetramer (Medical & Biological Laboratories Co., Ltd.). The following groups were established as experimental groups: (1) an untreated group, (2) a group in which TRP-2 was added, and (3) a group in which TRP-2 and Compound A were both added.

`CCCC[C@H](C)C[C@H](O)/C=C/[C@H]1[C@H](O)CC(=O)[C@@H]1CC(=O)C1CCC(C(=O)O)CC1` (stereo partly drawn) [Compound A, (13E)-(11α,15S,17S)-2,5-Ethano-6,9-dioxo-11,15-dihydroxy-17,20-dimethylprosta-13-enoic acid] was tested, and the “Uptake of WST-1 (%)” value (splenic lymphocytes) was 27.3%, the “Expression of each cell-surface molecule (%): ICAM-1” value (ICAM-1 (CD54)) was 46.3% and the “Expression of each cell-surface molecule (%): CD40” value (CD40) was 30.8%. For the same compound, the “Expression of each cell-surface molecule (%): B7-1” value (B7-1 (CD80)) was 8.8%, the “Ratio of NK1.1+ cells” value (NK1.1+ cells) was 3.6 and the “Ratio of TRP-2-specific CTLs” value [1] was 0.53. The “Expression of each cell-surface molecule (%): I-A^b” value (I-A^b) was 28.3%, the Number of survivors (B16 melanoma cells; day 14 after inoculation of B16 melanoma cells) was 8 and the Number of survivors (B16 melanoma cells; day 16 after inoculation of B16 melanoma cells) was 8. For the same compound, the Number of survivors (B16 melanoma cells; day 24 after inoculation of B16 melanoma cells) was 8, the Number of survivors (B16 melanoma cells; day 25 after inoculation of B16 melanoma cells) was 8 and the Number of survivors (B16 melanoma cells; day 28 after inoculation of B16 melanoma cells) was 8. The Number of survivors (B16 melanoma cells; day 30 after inoculation of B16 melanoma cells) was 8, the Number of survivors (B16 melanoma cells; day 32 after inoculation of B16 melanoma cells) was 8 and the Number of survivors (B16 melanoma cells; day 34 after inoculation of B16 melanoma cells) was 8. The Number of survivors (B16 melanoma cells; day 36 after inoculation of B16 melanoma cells) was 4, the Number of survivors (B16 melanoma cells; day 38 after inoculation of B16 melanoma cells) was 0 and the Number of survivors (B16 melanoma cells; day 41 after inoculation of B16 melanoma cells) was 0. For the same compound, the Number of survivors (B16 melanoma cells; day 44 after inoculation of B16 melanoma cells) was 0, the Number of survivors (B16 melanoma cells; day 46 after inoculation of B16 melanoma cells) was 0 and the Number of survivors (B16 melanoma cells; day 50 after inoculation of B16 melanoma cells) was 0. It also gave a Number of survivors (B16 melanoma cells; day 52 after inoculation of B16 melanoma cells) of 0, a Number of survivors (B16 melanoma cells; day 55 after inoculation of B16 melanoma cells) of 0 and a Number of survivors (B16 melanoma cells; day 56 after inoculation of B16 melanoma cells) of 0. The “Expression of each cell-surface molecule (%): B7-2” value (B7-2 (CD86)) was 65.2%.

With “NP: influenza virus-specific antigen peptide, nucleoprotein (NP) 366-374, Ala Ser Asn Glu Asn Met Glu Thr Met (ASNENMETM; UniProt P03466 366-374, looked up, fragment)” the Specific lysis (NP-pulsed EL4 cells) was 11.9% and the Specific lysis [2] was 1.2%.

“TRP-2: melanoma-specific antigen peptide, tyrosinase-related protein 2 181-188, Val Tyr Asp Phe Phe Val Trp Leu (VYDFFVWL; Tyrosinase-related protein 2 residues 181-188) [reference compound]” was tested, and the “Ratio of TRP-2-specific CTLs” value [1] was 0.44 and the “Ratio of TRP-2-specific CTLs” value [3] was 3.2.
